Experimental data from patent US20250170239A1, “CELLULAR REPROGRAMMING BY TARGETING THE GOLGI APPARATUS” (MUSC Foundation for Research Development, priority 2023, published 2025).

Legend:
Format in all cases: cell-based, mouse
Pmel T cells = test: Golgi stress (monensin, H2O2, thapsigargin) in Pmel T cells: GM130, ROS, Golgi dispersion; design: cell death / mitochondrial ROS / monensin-induced cell death and mitochondrial ROS accumulation / ER stress (p-PERK): dose or concentration left out as unconfirmed
Method: (FIG. 21A) Levels of intracellular glutathione assessed using FACS by employing ThiolTracker Violet dye in control CD19 CAR-T cells or CAR-T cells overexpressing Cbs (CbstdCD19-CAR-T) (n=3). (FIG. 21B) 12 hour Thapsigargin (700 nM) treatment was used to induce ER stress in WT T cells, Cbs-KO T cells, and Cbs-KO T cells+H2S. Levels of phosphorylated PERK were assessed by FACS (n=3). (FIG. 21C) Pmel T cells were treated with either Thapsigargin (700 nM) or Monensin (1 mM) for 12 hours, followed by staining for phosphorylated PERK (p-PERK) and GM130 to assess ER stress and Golgi stress, respectively (n=4). (FIG. 21D) Activated Pmel T cells were treated for 12 hours with either vehicle control or 1 mM Monensin (“+Golgi stress”) before being stained for giantin to assess Golgi dispersion. […] (FIG. 21E) Representative confocal microscopy images of mitochondria (Tom20) and Golgi (giantin) in human PBMCs treated with vehicle control or 0.5 mM GYY4137.
T cells were stained with conjugated for surface markers as described in the figure legends followed by fixation and permeabilization with BD Cytofix/Cytoperm Kit (BD Biosciences, 554722). The Golgi was labeled using anti-Giantin antibody (Abcam, ab80864) as the primary antibody followed by secondary antibody staining with anti-Rabbit IgG conjugated to Alexa Fluor 488 (ab150077). The cells were then imaged using ImageStreamX mark II imaging flow-cytometer and analyzed using IDEAS 6.2. Spectral overlap was compensated for using single-stain controls. Image analysis for Golgi area was performed using the protocol established by Eisenberg-Lerner et al.44 First, cells were gated on single cells using the area and aspect ratio features, and then gated on focused cells using the Gradient RMS feature. Golgi area was calculated using the anti-Giantin fluorescence signaling, using on the Threshold_50 mask that includes the 50% highest intensity pixels of the Golgi staining, with a mask defined as Area Threshold 50 was considered as the Golgi area to compare between the relevant conditions.

Prdx4 knockdown T cells = test: Prdx4 siRNA knockdown Pmel T cells under Golgi/oxidative stress
Method: (FIG. 22A) Pmel T cells were activated for 3 days before treatment with vehicle or 50 mM H2O2 for 6 hrs. Prdx4-Golgi colocalization was assessed by PLA using mouse anti-Giantin and rabbit anti-Prdx4 antibodies. (FIG. 22B) Activated Pmel T cells treated with vehicle or 50 mM H2O2 for 6 hrs or 24 hrs with Monensin (1 mM). PLA assay was performed using anti-Giantin and anti-Prdx4 antibodies. (FIG. 22C) Experimental design using Prdx4-targeted siRNA to silence expression of Prdx4 in Pmel T cells. (FIG. 22D) GM130 expression assessed under control versus Monensin (1 μM) conditions in T cells treated with control-siRNA or Prdx4-siRNA. (FIG. 22E) GM130 expression assessed under control versus 50 mM H2O2 conditions in T cells treated with control-siRNA or Prdx4-siRNA+/−0.5 mM GYY4137. (FIG. 22F) Protein translation assessed in Pmel T cells activated+/−GYY4137 and treated with control-siRNA or Prdx4-siRNA. (FIG. 22G) GM130 expression in Pmel T cells treated with vehicle, GYY4137, or Catalase (10 μg/mL). (FIGS. 22H and 22I) Site directed mutagenesis performed to mutate cysteine-54 of the Prdx4 gene. Prdx4-targeted shRNA was used to knock down expression of Prdx4 in Jurkat T cells, followed by transfection with plasmid containing wildtype or mutated Prdx4. (FIG. 22I) GM130 expression assessed after treatment with 50 mM H2O2+/−GYY4137. (FIG. 22J) B16-F10 tumors were injected s.c. into flanks of Pmel mice and grown to ˜100 mm2. TILs and T cells from tumor-draining lymph nodes were isolated via Ficoll spin followed by magnetic bead positive selection. FACS analysis of Prdx4 expression in TILs gated on PD1loLag3lo vs PD1hiLag3hi. (FIG. 22K) Lentiviral supernatant was generated using GFP-tagged control plasmid or GFP-tagged Prdx4-overexpression plasmid. Pmel T cells were transduced with control or Prdx4 lentivirus. Pmel T cells overexpressing Prdx4 and control T cells were treated with H2O2 (50 mM) followed by staining with anti-GM130.
Given the delicate redox balance necessary for the native disulfide bonds, it was postulated that a localized mechanism for the detection and elimination of ROS produced during the oxidative folding process may require Prdx4. Thus, it was hypothesized that ER and Golgi network stress mitigated by H2S is mediated through the Prdx4 localization and activity in these organelles. First, it was established if Prdx4 also localizes within the Golgi apparatus in T cells using a proximity ligation assay (PLA), a tool that allows in situ detection of endogenous proteins with high specificity and sensitivity, with antibodies directed against Giantin (a conserved Golgi membrane protein) and Prdx4. […] Next, using siRNA targeting Prdx4, expression of Prdx4 in CD8+ Pmel T cells was knocked down (FIG. 22C, FIGS. 23A and 23B). The cells were then subjected to conditions of oxidative and Golgi stress in the presence or absence of H2S treatment. […] Then, to determine whether the protective effect of H2S on Golgi stress is dependent on the presence of Prdx4, Golgi stress was induced in the presence or absence of H2S with control (siCtl) and Prdx4 knockdown (siPrdx4) T cells.

CD8+ Pmel T cells = test: RT-PCR of CBS and CSE in cytokine-treated CD8+ Pmel T cells; details: CD8+ Pmel T cells activated 3 days in presence of cytokine
From the text: (FIG. 13A) Pmel T cells were stained with trypan blue stain on day 3 following activation with gp100+IL2 (100 IU/ml) and treated with concentrations of GYY4137 (n=5). (FIG. 13B) Gating strategy for FACS analysis. Pmel splenocytes stained with LIVE/DEAD Fixable Yellow dye and anti-CD8 PE-Cy7. All FACS samples were first gated on the lymphocyte population based on FSA vs SSA. Single cells were gated using FSA vs. FSH. Live cells were gated using live/dead exclusion dye. CD8+ cells were gated by selecting the positive population. (FIG. 13C) Pmel T cells were stimulated with gp100 tumor antigen and treated with either vehicle or GYY4137 (0.5 mM) and analyzed by FACS for expression of CD62L and CD44 at day 0, day 2, day 4, and day 6. […] (FIG. 13F) CD8+ Pmel T cells were activated for 3 days in the presence of various cytokines and analyzed for mRNA expression of CBS and CSE. […] Splenocytes were activated with anti-CD3 and anti-CD28 antibodies an analyzed for expression of Cbs by western blot. (FIG. 13H) Splenocytes from WT and Cbs-KO mice were expanded with either IL-2 or expanded with IL-15 (10 ng/ml) with or without addition of H2S to the Cbs-KO cells and analyzed for expression of CD62L and CD44 by FACS (n=3). […] At day 14, the mice were bled and the frequency of CD3+ T cells was assessed by FACS (n=5). […] (FIG. 13K) Cells were analyzed using FACS for expression of PD1, TIM3, Lag3, and CD38 (n=3). […]

C/C=C(/C)C(=O)O[C@H]1C(C)=C2[C@H]([C@@H]1OC(=O)CCCCCCC)[C@@](C)(OC(C)=O)C[C@H](OC(=O)CCC)[C@@]1(O)[C@H]2OC(=O)[C@@]1(C)O [Thapsigargin]
Golgi stress (GM130) (Pmel T cells; Thapsigargin (700 nM) 12 hours): nor did Thapsigargin induced Golgi stress

CC[C@@]1([C@@H]2O[C@@H]([C@H]3O[C@@](O)(CO)[C@H](C)C[C@@H]3C)C[C@@H]2C)CC[C@H]([C@]2(C)CC[C@]3(C[C@H](O)[C@@H](C)[C@@H]([C@@H](C)[C@@H](OC)[C@H](C)C(=O)O)O3)O2)O1 [monensin]
decrease in GM130 expression, Prdx4 knockdown T cells (Prdx4 knockdown T cells; Monensin (1 μM)): further exacerbated
ER stress (p-PERK) (Pmel T cells): did not induce ER stress
cell death (Pmel T cells): induced cell death
mitochondrial ROS (Pmel T cells): cellular accumulation of mitochondrial ROS
Golgi dispersion (Golgi area, ImageStream) (Pmel T cells; 1 mM Monensin 12 hours): Golgi dispersion significantly increased
intracellular ROS (DCFDA) (Pmel T cells; 1 mM monensin): significant increase in ROS (DCFDA)

IL6: cytokine that plays a key role in memory formation
mRNA expression of CBS and CSE (CD8+ Pmel T cells): significantly increased expression of both CBS and CSE

IL15: cytokine known to induce the Tcm phenotype in T cells
mRNA expression of CBS and CSE (CD8+ Pmel T cells): significantly increased expression of both CBS and CSE

catalase
protection against Golgi stress (GM130), Prdx4 knockdown T cells (Prdx4 knockdown T cells; Catalase (10 μg/mL)): protection against Golgi stress could be rescued
